For assay [1], the system named is phospho-SLP-76 (Ser376) in Jurkat cells. Put plainly: Phospho-SLP-76 (Ser376) Homogeneous Time Resolved Fluorescence (HTRF) assay in Jurkat cells. As to conditions: Homo sapiens, Phospho-SLP-76 (Ser376) HTRF, anti-CD3 stimulation, read-out: SLP76 Assay_IC50. Format: cell-based. An outline of the steps:
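Phospho-SLP-76 in lysates was read by sandwich HTRF and IC50 derived by four-parameter nonlinear regression. Before lysis, cells had received compound for 30 min (11-point, 3-fold series from 10 μM, 0.1% DMSO), followed by anti-CD3 F(ab)2 complex (200 μg/mL, 15 min, 37 °C).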

In assay [2] the target is human full-length recombinant HPK1 (Homo sapiens (Human), UniProt Q92918). Put plainly: HPK1 biochemical enzyme assay, microfluidic mobility shift assay (MSA). As to conditions: HPK1 mobility shift assay; read-out: HPK1 Enzyme Assay_Ki.

pIC50, pKi: −log10 of the molar value. Some results are limits rather than exact numbers.

human full-length recombinant HPK1, sequence (Q92918 whole entry): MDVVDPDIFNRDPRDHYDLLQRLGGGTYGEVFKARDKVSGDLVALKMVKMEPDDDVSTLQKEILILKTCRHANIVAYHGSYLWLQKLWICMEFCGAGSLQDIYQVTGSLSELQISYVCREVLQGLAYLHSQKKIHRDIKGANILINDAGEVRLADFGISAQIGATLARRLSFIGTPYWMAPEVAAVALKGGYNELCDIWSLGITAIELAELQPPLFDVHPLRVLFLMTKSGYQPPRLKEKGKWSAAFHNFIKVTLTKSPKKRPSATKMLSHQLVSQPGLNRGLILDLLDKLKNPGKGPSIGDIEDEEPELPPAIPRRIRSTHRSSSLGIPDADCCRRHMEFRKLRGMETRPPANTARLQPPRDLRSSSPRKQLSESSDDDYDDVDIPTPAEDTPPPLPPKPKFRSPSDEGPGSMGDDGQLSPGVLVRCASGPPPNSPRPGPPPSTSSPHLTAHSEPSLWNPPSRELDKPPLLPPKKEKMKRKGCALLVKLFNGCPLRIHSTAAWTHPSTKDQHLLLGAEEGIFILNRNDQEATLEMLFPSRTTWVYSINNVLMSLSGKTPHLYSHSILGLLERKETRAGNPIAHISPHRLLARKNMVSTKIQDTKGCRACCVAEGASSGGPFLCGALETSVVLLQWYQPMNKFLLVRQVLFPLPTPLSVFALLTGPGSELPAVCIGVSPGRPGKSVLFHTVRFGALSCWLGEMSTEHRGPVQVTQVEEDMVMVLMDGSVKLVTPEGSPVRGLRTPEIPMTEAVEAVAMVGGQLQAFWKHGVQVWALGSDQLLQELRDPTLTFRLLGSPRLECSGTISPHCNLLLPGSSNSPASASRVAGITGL

On to `CNCc1nc(C2CCC2)cc2c1CN(c1cccc(-c3nncn3C(C)C)n1)C2=O` [Example 69, 6-cyclobutyl-4-[(methylamino)methyl]-2-{6-[4-(propan-2-yl)-4H-1,2,4-triazol-3-yl]pyridin-2-yl}-2,3-dihydro-1H-pyrrolo[3,4-c]pyridin-1-one], for which, in assay [1], the pIC50 is 6.61. The pKi in assay [2] is 9.28.

As to `CCN(c1cc2c(c(CNC)n1)CN(c1cccc(-c3nncn3C(C)C)n1)C2=O)C(C)C` [Example 70, 6-[ethyl(propan-2-yl)amino]-4-[(methylamino)methyl]-2-{6-[4-(propan-2-yl)-4H-1,2,4-triazol-3-yl]pyridin-2-yl}-2,3-dihydro-1H-pyrrolo[3,4-c]pyridin-1-one], the pIC50 in assay [1] was 7.21. Further, the pKi in assay [2] was 9.80.

Take `CCn1cnnc1-c1cccc(N2Cc3c(cc(N(C)C(C)C)nc3CNC)C2=O)n1` [Example 71, 2-[6-(4-ethyl-4H-1,2,4-triazol-3-yl)pyridin-2-yl]-4-[(methylamino)methyl]-6-[methyl(propan-2-yl)amino]-2,3-dihydro-1H-pyrrolo[3,4-c]pyridin-1-one]: in assay [1], the pIC50 was 7.40. In assay [2], the pKi is 9.74.

As for `CNCc1nc(N(C)C(C)C)cc2c1CN(c1cccc(N3C(=O)OC[C@@H]3C)n1)C2=O` [Example 74, 4-[(methylamino)methyl]-2-{6-[(4S)-4-methyl-2-oxo-1,3-oxazolidin-3-yl]pyridin-2-yl}-6-[methyl(propan-2-yl)amino]-2,3-dihydro-1H-pyrrolo[3,4-c]pyridin-1-one], the pIC50 in assay [1] was 7.11. The pKi in assay [2] is 10.22.

For `CCN(CC)c1cc2c(c(CN)n1)CN(c1cccc(-c3nncn3CC)n1)C2=O` [Example 75, 4-(aminomethyl)-6-(diethylamino)-2-[6-(4-ethyl-4H-1,2,4-triazol-3-yl)pyridin-2-yl]-2,3-dihydro-1H-pyrrolo[3,4-c]pyridin-1-one], in assay [1], the pIC50 is 6.93. Besides, the pKi in assay [2] is 9.28.

Take `CCNc1cc2c(c(CNC)n1)CN(c1cccc(-c3nncn3CC)n1)C2=O` [Example 76, 6-(ethylamino)-2-[6-(4-ethyl-4H-1,2,4-triazol-3-yl)pyridin-2-yl]-4-[(methylamino)methyl]-2,3-dihydro-1H-pyrrolo[3,4-c]pyridin-1-one]: the pIC50 in assay [1] was 6.23. Besides, in assay [2], the pKi was 9.19.

For the compound `CNCc1nc(NC(C)C)cc2c1CN(c1cccc(-c3nncn3C(C)C)n1)C2=O` [Example 78, 4-[(methylamino)methyl]-6-(propan-2-ylamino)-2-{6-[4-(propan-2-yl)-4H-1,2,4-triazol-3-yl]pyridin-2-yl}-2,3-dihydro-1H-pyrrolo[3,4-c]pyridin-1-one], the pIC50 in assay [1] was 6.51. Besides, in assay [2], the pKi is 9.14.

In the case of `CC(C)N(C)c1cc2c(c(CN)n1)CN(c1cccc(-c3nncn3C(C)C)n1)C2=O` [Example 79, 4-(aminomethyl)-6-[methyl(propan-2-yl)amino]-2-{6-[4-(propan-2-yl)-4H-1,2,4-triazol-3-yl]pyridin-2-yl}-2,3-dihydro-1H-pyrrolo[3,4-c]pyridin-1-one], in assay [1], the pIC50 was 7.32. In addition, the pKi in assay [2] was above 10.30.

In the case of `CCCn1cnnc1-c1cccc(N2Cc3c(cc(N(CC)CC)nc3CNC)C2=O)n1` [Example 80, 6-(diethylamino)-4-[(methylamino)methyl]-2-[6-(4-propyl-4H-1,2,4-triazol-3-yl)pyridin-2-yl]-2,3-dihydro-1H-pyrrolo[3,4-c]pyridin-1-one], the pIC50 in assay [1] was 6.74. In addition, in assay [2], the pKi was 9.80.

For `CNCc1nc(N(C)C(C)C)cc2c1CN(c1cccc(-c3nncn3C)n1)C2=O` [Example 81, 4-[(methylamino)methyl]-6-[methyl(propan-2-yl)amino]-2-[6-(4-methyl-4H-1,2,4-triazol-3-yl)pyridin-2-yl]-2,3-dihydro-1H-pyrrolo[3,4-c]pyridin-1-one], in assay [1], the pIC50 is 6.39. The pKi in assay [2] was 9.24.

For `CCCn1cnnc1-c1cccc(N2Cc3c(cc(N(C)C(C)C)nc3CN)C2=O)n1` [Example 82, 4-(aminomethyl)-6-[methyl(propan-2-yl)amino]-2-[6-(4-propyl-4H-1,2,4-triazol-3-yl)pyridin-2-yl]-2,3-dihydro-1H-pyrrolo[3,4-c]pyridin-1-one], in assay [1], the pIC50 is 7.02. Besides, in assay [2], the pKi is 9.92.

Consider `CNCc1nc(C2(C)CC2)cc2c1CN(c1ccc(F)c(-c3nncn3C(C)C)n1)C2=O` [Example 83, 2-{5-fluoro-6-[4-(propan-2-yl)-4H-1,2,4-triazol-3-yl]pyridin-2-yl}-4-[(methylamino)methyl]-6-(1-methylcyclopropyl)-2,3-dihydro-1H-pyrrolo[3,4-c]pyridin-1-one], for which the pIC50 in assay [1] is 5.18. Besides, the pKi in assay [2] was 7.45.

In the case of `CCN(c1cc2c(c(CNC)n1)CN(c1cccc(-c3nncn3CC)n1)C2=O)C(C)C` [Example 84, 6-[ethyl(propan-2-yl)amino]-2-[6-(4-ethyl-4H-1,2,4-triazol-3-yl)pyridin-2-yl]-4-[(methylamino)methyl]-2,3-dihydro-1H-pyrrolo[3,4-c]pyridin-1-one], in assay [1], the pIC50 is 6.86. Besides, the pKi in assay [2] is 9.85.

For the compound `CC1(c2cc3c(c(CN)n2)CN(c2cccc(N4C(=O)OC[C@@H]4CF)n2)C3=O)CC1` [Example 85, 4-(aminomethyl)-2-{6-[(4R)-4-(fluoromethyl)-2-oxo-1,3-oxazolidin-3-yl]pyridin-2-yl}-6-(1-methylcyclopropyl)-2,3-dihydro-1H-pyrrolo[3,4-c]pyridin-1-one], the pIC50 in assay [1] is 6.46. In addition, the pKi in assay [2] is 8.95.

Consider `NCc1nc(C2CC2)cc2c1CN(c1cccc(N3C(=O)OC[C@@H]3CF)n1)C2=O` [Example 86, 4-(aminomethyl)-6-cyclopropyl-2-{6-[(4R)-4-(fluoromethyl)-2-oxo-1,3-oxazolidin-3-yl]pyridin-2-yl}-2,3-dihydro-1H-pyrrolo[3,4-c]pyridin-1-one], for which the pIC50 in assay [1] was 6.19. Also, the pKi in assay [2] was 8.52.

With `CNCc1nc(C2CC2)cc2c1CN(c1cccc(N3C(=O)OC[C@@H]3CF)n1)C2=O` [Example 87, 6-cyclopropyl-2-{6-[(4R)-4-(fluoromethyl)-2-oxo-1,3-oxazolidin-3-yl]pyridin-2-yl}-4-[(methylamino)methyl]-2,3-dihydro-1H-pyrrolo[3,4-c]pyridin-1-one], the pIC50 in assay [1] was 6.52. The pKi in assay [2] was 8.84.

`CCN(CC)c1cc2c(c(CN(C)C)n1)CN(c1cccc(-c3nncn3CC)n1)C2=O` [Example 88, 6-(diethylamino)-4-[(dimethylamino)methyl]-2-[6-(4-ethyl-4H-1,2,4-triazol-3-yl)pyridin-2-yl]-2,3-dihydro-1H-pyrrolo[3,4-c]pyridin-1-one]: in assay [1], the pIC50 is 5.57. Also, in assay [2], the pKi was 8.60.

Take `CCn1cnnc1-c1cccc(N2Cc3c(cc(N(C)C(C)C)nc3CN)C2=O)n1` [Example 89, 4-(aminomethyl)-2-[6-(4-ethyl-4H-1,2,4-triazol-3-yl)pyridin-2-yl]-6-[methyl(propan-2-yl)amino]-2,3-dihydro-1H-pyrrolo[3,4-c]pyridin-1-one]: in assay [1], the pIC50 was 7.27. Besides, in assay [2], the pKi is above 10.10.

Turning to `CCCn1cnnc1-c1cccc(N2Cc3c(cc(C4(C)CC4)nc3CN)C2=O)n1` [Example 90, 4-(aminomethyl)-6-(1-methylcyclopropyl)-2-[6-(4-propyl-4H-1,2,4-triazol-3-yl)pyridin-2-yl]-2,3-dihydro-1H-pyrrolo[3,4-c]pyridin-1-one], the pIC50 in assay [1] was 6.16. Moreover, the pKi in assay [2] was 8.84.

For the compound `CNCc1nc(C2(C)CC2)cc2c1CN(c1cccc(N3C(=O)OC[C@@H]3CF)n1)C2=O` [Example 91, 2-{6-[(4R)-4-(fluoromethyl)-2-oxo-1,3-oxazolidin-3-yl]pyridin-2-yl}-4-[(methylamino)methyl]-6-(1-methylcyclopropyl)-2,3-dihydro-1H-pyrrolo[3,4-c]pyridin-1-one], in assay [1], the pIC50 is 6.59. Moreover, the pKi in assay [2] was 9.48.

`CCn1cnnc1-c1cccc(N2Cc3c(cc(N4CCC4)nc3CNC)C2=O)n1` [Example 92, 6-(azetidin-1-yl)-2-[6-(4-ethyl-4H-1,2,4-triazol-3-yl)pyridin-2-yl]-4-[(methylamino)methyl]-2,3-dihydro-1H-pyrrolo[3,4-c]pyridin-1-one]: the pIC50 in assay [1] was 6.65. Further, the pKi in assay [2] was 9.37.

On to `CCCn1cnnc1-c1cccc(N2Cc3c(cc(N4CCC4)nc3CNC)C2=O)n1` [Example 93, 6-(azetidin-1-yl)-4-[(methylamino)methyl]-2-[6-(4-propyl-4H-1,2,4-triazol-3-yl)pyridin-2-yl]-2,3-dihydro-1H-pyrrolo[3,4-c]pyridin-1-one], for which the pIC50 in assay [1] is 6.15. Besides, the pKi in assay [2] is 9.38.

As to `CCCn1cnnc1-c1cccc(N2Cc3c(cc(C4(C)CC4)nc3CNC)C2=O)n1` [Example 94, 4-[(methylamino)methyl]-6-(1-methylcyclopropyl)-2-[6-(4-propyl-4H-1,2,4-triazol-3-yl)pyridin-2-yl]-2,3-dihydro-1H-pyrrolo[3,4-c]pyridin-1-one], the pIC50 in assay [1] was 6.55. In addition, the pKi in assay [2] was 9.47.

In the case of `CCn1cnnc1-c1cccc(N2Cc3c(cc(C4(C)CC4)nc3CNC)C2=O)n1` [Example 95, 2-[6-(4-ethyl-4H-1,2,4-triazol-3-yl)pyridin-2-yl]-4-[(methylamino)methyl]-6-(1-methylcyclopropyl)-2,3-dihydro-1H-pyrrolo[3,4-c]pyridin-1-one], the pIC50 in assay [1] was 6.77. Also, the pKi in assay [2] is 9.29.

Turning to `CCN(CC)c1cc2c(c(CNC)n1)CN(c1cccc(-c3cnc(C)n3CC)n1)C2=O` [Example 96, 6-(diethylamino)-2-[6-(1-ethyl-2-methyl-1H-imidazol-5-yl)pyridin-2-yl]-4-[(methylamino)methyl]-2,3-dihydro-1H-pyrrolo[3,4-c]pyridin-1-one], the pIC50 in assay [1] was 6.85. In addition, in assay [2], the pKi is 9.40.

(Values after patent US11142525B2 (Pfizer Inc., priority 2018, dated 2021).)
